From US20220016101A1 (ACADIA Pharmaceuticals Inc., priority 2018, published 2022)

Legend:
[1] = system: patients with MDD and an inadequate response to an SSRI or SNRI; assay: HAMD-17 melancholic symptom subscale score (HAMD-6), MDD study; format: in vivo, human; details: for HAMD-17 Melancholic Symptom Subscale Score Change from Baseline to Week 5 Mean (SE) / HAMD-17 Melancholic Symptom Subscale Score Change from Baseline to Week 5 Median: 34 mg QD + SSRI/SNRI
Description: “Hamilton Depression Scale 6-item (HAMD-6)” is a subscale derived from the 17-item Hamilton Rating Scale for Depression (HAMD-17). HAMD-6 includes the following items: depressed mood, guilt feelings, work and interests, psychomotor retardation, psychic anxiety, and general somatic symptoms (Bech et al. Acta Psychiatr Scand. 1975, 51(3):161-70).
All patients continued on their SSRI or SNRI at a stable dose for the duration of the study.
A higher HAMD-17 melancholic symptom subscale score indicates more severe depression […]. The abbreviations are: CI=confidence interval; LSM=least squares mean; MMRM=mixed-effects model for repeated measures; OC=observed cases; SD=standard deviation; SE=standard error. In Stage 1, Baseline=Study Week 0, Weeks 1-5=Study Weeks 1-5; and in Stage 2, Baseline=Study Week 5, Weeks 1-5=Study Weeks 6-10. LSM is from the stage-specific MMRM analysis with the change from baseline as the outcome; treatment group, visit, treatment-by-visit interaction, baseline melancholic symptom subscale score, and baseline melancholic symptom subscale score-by-visit interaction as the factors. An unstructured covariance matrix is used to model the within-subject errors. The denominator degrees of freedom are estimated using the Kenward-Roger approximation. 2-Sided p-value is for treatment difference from the stage-specific MMRM analysis.

[2] = system: patients with MDD and an inadequate response to an SSRI or SNRI; assay: Karolinska Sleepiness Scale (KSS), MDD study; format: in vivo, human; details: Week 5 of Stage 1
Description: “Karolinska Sleepiness Scale (KSS)” is a scale for evaluating subjective sleepiness (Kaida et al. Clinical Neurophysiology 2006, 117, 7, 1574-1581).
Clinic visits occurred weekly from Weeks 1 through 10. The MADRS was administered at screening and baseline. The HAMD-17, SDS, CGI, and KSS were administered at baseline and weekly during the study. Other endpoints such as the SF-12 were administered at baseline and Weeks 5 and 10. Treatment response was defined as a reduction of 50% from baseline for the HAMD-17 total score, and remission was defined as a HAMD-17 total score

Compound: CC(C)COc1ccc(CNC(=O)N(Cc2ccc(F)cc2)C2CCN(C)CC2)cc1 [pimavanserin, N-(4-Fluorophenylmethyl)-N-(1-methylpiperidin-4-yl)-N′-(4-(2-methylpropyloxy)phenylmethyl)carbamide]
- HAMD-17 Melancholic Symptom Subscale Score Effect Size (Cohen's d) ([1]; Stage 1): 0.558
- HAMD-17 Melancholic Symptom Subscale Score Change from Baseline to Week 5 Mean (SE) ([1]; Stage 1): −6.8 (0.62)
- HAMD-17 Melancholic Symptom Subscale Score Change from Baseline to Week 5 Median ([1]; Stage 1): −8.0
- HAMD-17 Melancholic Symptom Subscale Score Effect Size (Cohen's d) ([1]; Stage 2): −0.304
- HAMD-17 Melancholic Symptom Subscale Score Change from Baseline to Week 5 Mean (SE) ([1]; Stage 2): −1.0 (0.46)
- HAMD-17 Melancholic Symptom Subscale Score Change from Baseline to Week 5 Median ([1]; Stage 2): −1.0
- KSS effect size [2]: 0.627
- KSS LSmean difference from baseline for pimavanserin vs. placebo ([2]; daytime sleepiness): −1.1 (0.30)
